Experimental data taken from patent publication US20220133894A1, “BISPHOSPHONATE-LINKED COMPOUNDS” (OREGON HEALTH & SCIENCE UNIVERSITY, priority 2019, published 2022).

Assays:
VCaP cells = assay: SRB growth inhibition assay, VCaP; type: cell-based, human; details: 10 μM enzalutamide, 10 μM KBU2046 added to control or enzalutamide treated cells, 72 hours
Protocol: (§1) LNCaP or VCaP cells cultured in hormone free media were treated with R1881 (R), KBU2046 (46) and/or enzalutamide (E). (FIGS. 3A and 3B) Effects on AR-responsive gene expression. PSA expression was measured by qRT/PCR, normalized to GAPDH and expressed as a percent of control cells (N=3 replicates); * denotes P<0.05 for groups separated by bar. (FIGS. 3C and 3D) Effects on cell growth. Three day growth assays were performed. Data are the number of viable cells, expressed as % of control (N=3 replicates); * P<0.05 compared to control. (E) Effects on AR activation. Western blots of nuclear (N) and cytoplasmic (C) preparations of cell extracts were probed for AR, laminin 1 or α-tubulin. (FIGS. 3F and 3G) Effects on tumor outgrowth after androgen deprivation therapy. LNCaP/AR-luc cells were implanted subcutaneously (N=6 mice/cohort) or orthotopic (N=15 mice/cohort were implanted; N=5 yielded tumors) into castrate mice, treatment with KBU2046 began as noted, and weekly IVIS imaging performed. Data are tumor size, expressed as luminescence intensity. All data are expressed as mean±SEM.
(§2) Enzalutamide mediated growth inhibition was assessed using Sulforhodamine B (SRB) growth inhibition assays, were performed as previously described (49). In brief, LNCaP and VCaP cells were pre-incubated in charcoal-striped medium for 48 hours and then seeded (1.9×10^4) in 96-well plates. […]

PC3-M cells [1] = assay: PCa subcutaneous implantation, tumor growth; type: in vivo; details: oral 80 mg KBU2046/kg, weekly intraperitoneal docetaxel 20 mg/kg, KBU2046 added to control or docetaxel treated mice
Protocol: FIG. 1A depicts the effect of chemotherapy on the growth of androgen independent PC3-M PCa cells in vitro. Data are the mean±SEM (N=3 replicates) of cell viability in a 3 day growth assay in the presence of 10 μM KBU2046 or vehicle (control) treated with docetaxel or cabazitaxel. FIG. 1B depicts the effect of chemotherapy on the growth of androgen independent PCa cells in vivo. Mice received subcutaneous implants of PC3-M cells, were monitored until tumors were detectable (250 mm^3), and then treated daily with oral 80 mg KBU2046/kg (46) or vehicle (CO) and with weekly intraperitoneal docetaxel (doc) at 0 or 20 mg/kg, beginning on day 1, and tumor size measured. Data are mean±SEM, with N=20 mice per cohort.
PCa subcutaneous implantation: 2.5×10^5 PC3-M cells in sterile PBS were implanted into the right flank of 6-7 week old male athymic nude mice (Charles River) and tumor growth measurements were performed twice a week as previously described by us (Gordon et al., Chemotherapy-induced monoamine oxidase expression in prostate carcinoma functions as a cytoprotective resistance enzyme and associates with clinical outcomes. PLoS One 9, e104271 (2014)). […] Tumor measurements were obtained in a blinded fashion, and tumor volumes were calculated with the following formula: length×(width)^2×0.5.

[2] = test system: human prostate and breast cancer; details: oral administration, nanomolar concentrations; cited from earlier work
LNCaP/AR-luc cells = assay: Castration resistant PCa orthotopic implantation, tumor outgrowth; type: in vivo, mice; details: orthotopic implants, 80 mg/kg KBU2046 oral, treatment from 12 weeks
Protocol: To complete our assessments of the androgen related paradigm, the effect of KBU2046 on resistance to hormone therapy was evaluated. The outgrowth of LNCaP/AR-luc cells in castrate mice is routinely utilized as a model to emulate the transition to a castration resistant phenotype (Tran et al., Science 324, 787-790 (2009)). In this model, tumor outgrowth is detectable ˜8 weeks post implantation, and growth kinetics are typically monitored until 16 weeks post implantation. Here, two treatment approaches were investigated, the effects of beginning treatment early at 4 weeks, or late at 12 weeks, and were performed in mice receiving subcutaneous or orthotopic implants, respectively (FIGS. 3F and 3G).
LNCaP or VCaP cells cultured in hormone free media were treated with R1881 (R), KBU2046 (46) and/or enzalutamide (E). (FIGS. 3A and 3B) Effects on AR-responsive gene expression. PSA expression was measured by qRT/PCR, normalized to GAPDH and expressed as a percent of control cells (N=3 replicates); * denotes P<0.05 for groups separated by bar. (FIGS. 3C and 3D) Effects on cell growth. Three day growth assays were performed. Data are the number of viable cells, expressed as % of control (N=3 replicates); * P<0.05 compared to control. (E) Effects on AR activation. […] Data are tumor size, expressed as luminescence intensity. All data are expressed as mean±SEM. […]

PC3-M cells [3] = assay: 7 day colony formation assay, chemotherapy with or without KBU2046; type: cell-based, human
Protocol: To assess the impact of cytotoxic chemotherapy on PCa growth kinetics seven-day soft agar colony formation assays and three-day MTT cell growth inhibition assays were performed as described by us ([…] et al., Cancer Lett 352, 179-186 (2014)). MTT assays were in replicates of N=3, and were repeated, soft agar assays were in replicates of N=2 and are presented as mean number of colonies, expressed as percent of untreated controls. For PC3-M PCa and MDA-MB-231 triple negative breast cancer cells, data are the mean±SD (N=2 replicates) number of colonies in 7 day colony formation assays. All data are expressed as the percentage of untreated control cells. Cells were treated with 10 μM KBU2046 or vehicle (CO), and the indicated concentration and type of chemotherapy.

LNCaP cells = assay: SRB growth inhibition assay, LNCaP; type: cell-based, human; details: 10 μM enzalutamide, 10 μM KBU2046 added to control or enzalutamide treated cells, 72 hours
Protocol: as §1, §2

O=C1c2ccccc2OCC1c1ccc(F)cc1 (centres unmarked) [KBU2046, 3-(4-fluorophenyl)chroman-4-one]
cell growth (VCaP cells): no significant effect | tumor growth (PC3-M cells [1]): did not significantly affect | bone destruction [2]: decreases | metastasis [2]: inhibits | survival [2]: prolongs | tumor growth (outgrowth in castrate mice) (LNCaP/AR-luc cells): did not alter | effect on activity of adriamycin (PC3-M cells [3]; 10 μM KBU2046, PC3-M cells, FIG. 14): does not inhibit | effect on activity of vinblastine (PC3-M cells [3]; 10 μM KBU2046, PC3-M cells, FIG. 16): does not inhibit | effect on activity of taxol (PC3-M cells [3]; 10 μM KBU2046, PC3-M cells, FIG. 18): does not inhibit | interference upon cytotoxic action of adriamycin, taxol and vinblastine (PC3-M cells [3]; KBU2046 co-administered, PC3-M cells): lack of interference | cell growth (LNCaP cells): no significant effect
